# Experimental data from ChEMBL document CHEMBL1146000, “Synthesis, in vitro evaluation, and intraocular pressure effects of water-soluble prodrugs of endocannabinoid noladin ether” (J Med Chem, 2003).
# Tests used:
# [1] = Aqueous solubility of the phosphate in TRIS buffers at pH 7.4 at 37 C was determined; type: physicochemical; details: TRIS buffer
# [2] = Half-life in 10% liver homogenate at 37 C (n = 3); type: ADME, tissue-based
# alkaline phosphatase = test: Half-life in alkaline phosphatase solution at 37 C (n = 2); type: ADME
# [3] = Half-life in 4% cornea homogenate at 37 C (n = 3); type: ADME, tissue-based
# [4] = Distribution coefficients at 25 C in a 1-octanol-TRIS buffer; type: physicochemical
# [5] = Chemical stability in TRIS buffers at pH 7.4 at 37 C was determined; type: physicochemical; details: TRIS buffer
# [6] = Chemical stability in phosphate buffers at pH 7.4 at 37 C was determined; type: physicochemical; details: phosphate buffer
solubility [1],half-life [2],half-life (alkaline phosphatase),half-life [3],logD [4],half-life [5],half-life [6],SMILES
> 5000 µg/mL,6.4 min,1.6 min,17.2 min,0.65,,,CCCCC/C=C\C/C=C\C/C=C\C/C=C\CCCCOC(COP(=O)(O)O)COP(=O)(O)O
> 5000 µg/mL,7.1 min,4.6 min,18.1 min,1.98,216 h,17.9 days,CCCCC/C=C\C/C=C\C/C=C\C/C=C\CCCCOC(CO)COP(=O)(O)O (stereo not drawn)

SMILES,solubility [1],half-life [2],half-life (alkaline phosphatase),half-life [3],logD [4],half-life [5],half-life [6]
CCCCC/C=C\C/C=C\C/C=C\C/C=C\CCCCOC(CO)CO,< 0.1 µg/mL,,,,,,
